Experimental data: patent publication US9586969B2, “Microbiocidal heterobicyclic derivatives” (Syngenta Participations AG, priority 2014, dated 2017)
Like-named read-outs stand apart in the source and are kept apart here.

What was measured:
Format in all cases: cell-based
[1] = tested on: Botryotinia fuckeliana (Botrytis cinerea); assay: Botryotinia fuckeliana (Botrytis cinerea) / liquid culture (Gray mould); settings: 72 h, read-out: disease control
[2] = tested on: Monographella nivalis (Microdochium nivale); assay: Monographella nivalis (Microdochium nivale) / liquid culture (Foot rot cereals); settings: 96 h, read-out: disease control
[3] = tested on: Gaeumannomyces graminis; assay: Gaeumannomyces graminis / liquid culture (Take-all of cereals); settings: 96 h, liquid culture, 24° C., inhibition of growth determined photometrically 4-5 days after application, vs untreated control, read-out: disease control
[4] = tested on: Glomerella lagenarium (Colletotrichum lagenarium); assay: Glomerella lagenarium (Colletotrichum lagenarium) / liquid culture (Anthracnose); settings: Colletotrichum orbiculare, read-out: disease control
[5] = tested on: Fusarium culmorum; assay: microbe, parasite or virus in culture; settings: 72 h, read-out: disease control
[6] = 200 ppm, liquid culture, 24° C., inhibition of growth determined photometrically 3-4 days after application, vs untreated control
[7] = 200 ppm, liquid culture, 24° C., inhibition of growth determined photometrically 4-5 days after application, vs untreated control
[8] = 200 ppm, liquid culture, 24° C., inhibition of growth measured photometrically 3-4 days after application, vs untreated control

Measured: inhibition of growth at 200 ppm

CC1(C)N=C(c2cnn3cccc3c2)c2cccc(F)c2C1(C)C [E 1]
≥ 80%: [1]; [6] | [2]; [7] | [3] | [4]; [8]

Cc1cccc2c1CC(C)(C)N=C2c1cnn2cccc2c1 [E 4]
≥ 80%: [1]; [6] | [2]; [7] | [4]; [8]

CC1(C)Cc2c(Cl)cccc2C(c2cnn3cccc3c2)=N1 [E 6]
≥ 80%: [1]; [6] | [2]; [7] | [5] | [4]; [8]

CC1(C)Cc2c(F)cccc2C(c2cnn3c(F)ccc3c2)=N1 [E 7, 5-fluoro-1-(7-fluoro-pyrrolo[1,2-b]pyridazin-3-yl)-3,3-dimethyl-3,4-dihydro-isoquinoline]
≥ 80%: [1]; [6] | [2]; [7] | [5] | [4]; [8]

CC1(C)Cc2ccccc2C(c2cnn3c(F)ccc3c2)=N1 [E 8]
≥ 80%: [1]; [6] | [2]; [7] | [4]; [8]

CC1(C)Cc2c(Br)cccc2C(c2cnn3c(F)ccc3c2)=N1 [E 9]
≥ 80%: [1]; [6] | [2]; [7] | [5] | [4]; [8]

CC1(C)Cc2ccccc2C(c2cnn3cccc3c2)=N1 [E 10, 3,3-dimethyl-1-pyrrolo[1,2-b]pyridazin-3-yl-4H-isoquinoline]
≥ 80%: [1]; [6] | [2]; [7] | [4]; [8]

CC1(C)N=C(c2cnn3c(Cl)ccc3c2)c2cccc(F)c2C1(C)C [E 13]
≥ 80%: [1] | [2] | [4]

CC1(C)Cc2c(F)cccc2C(c2cnn3c(Br)ccc3c2)=N1 [E 17]
≥ 80%: [1]; [6] | [2]; [7] | [3] | [4]; [8]

CC1(C)Cc2ccccc2C(c2cnn3c(F)ccc3c2)N1 (stereo not shown) [E 21]
≥ 80%: [1]; [6] | [3] | [4]; [8]

CC1(C)Cc2c(C#N)cccc2C(c2cnn3c(F)ccc3c2)=N1 [E 22]
≥ 80%: [1]; [6] | [2]; [7] | [5] | [4]; [8]

CC1(C)N=C(c2cnn3c(F)cc(C#N)c3c2)c2cccc(F)c2C1(C)C [E 25]
≥ 80%: [1]; [6] | [2]; [7] | [4]; [8]

Cc1ccc2cc(C3=NC(C)(C)Cc4c(F)cccc43)cnn12 [E 26]
≥ 80%: [1]; [6] | [2]; [7] | [5] | [4]; [8]

CC1(C)Cc2c(Oc3ccccn3)cccc2C(c2cnn3cccc3c2)=N1 [E 31]
≥ 80%: [1]; [6] | [3]

CC1(C)Cc2c(cccc2C(F)F)C(c2cnn3cccc3c2)=N1 [E 32]
≥ 80%: [1]; [6] | [2]; [7] | [5] | [4]; [8]

CC1(C)N=C(c2cnn3c(I)ccc3c2)c2cccc(F)c2C1(C)C [E 37]
≥ 80%: [1]; [6] | [2]; [7] | [4]; [8]

CC1(C)N=C(c2cnn3c(C(F)(F)F)ccc3c2)c2cccc(F)c2C1(C)C [E 43]
≥ 80%: [1]; [6] | [2]; [7] | [4]; [8]

CC1(C)N=C(c2cnn3cccc3c2)c2cccc(F)c2C1(C)C [E 45]
≥ 80%: [5]

CC1(C)N=C(c2cnn3c(C#N)ccc3c2)c2cccc(F)c2C1(C)C [E 52]
≥ 80%: [1]; [6] | [2]; [7] | [5] | [4]; [8]

Cc1ccc2cc(C3=NC(C)(C)C(C)(C)c4c(F)cccc43)cnn12 [E 53]
≥ 80%: [1]; [6] | [2]; [7] | [5] | [4]; [8]

C#CCOc1cccc2c1CC(C)(C)N=C2c1cnn2cccc2c1 [E 54]
≥ 80%: [1]; [6] | [3]

CC1(C)Cc2c(C#N)cccc2C(c2cnn3cccc3c2)=N1 [E 58]
≥ 80%: [1]; [6] | [5] | [4]; [8]

CC1(C)N=C(c2cnn3cccc3c2)c2ccccc2C1(C)C [E 61]
≥ 80%: [1]; [6] | [5] | [4]; [8]

C#Cc1ccc2cc(C3=NC(C)(C)C(C)(C)c4c(F)cccc43)cnn12 [E 62]
≥ 80%: [1]; [6] | [2]; [7] | [4]; [8]

CC1(C)Cc2ccccc2C(c2cnn3c(Br)ccc3c2)=N1 [E 65]
≥ 80%: [1]; [6] | [2]; [7]

CC1(C)N=C(c2cnn3ccc(Br)c3c2)c2ccccc2C1=O [E 67]
≥ 80%: [2]; [7] | [4]; [8]

CC1(C)N=C(c2cnn3c(Cl)cc(Cl)c3c2)c2cccc(F)c2C1(C)C [E 69]
≥ 80%: [1]; [6] | [2]; [7] | [4]; [8]

CC1(C)N=C(c2cnn3ccc(Br)c3c2)c2ccccc2C1(F)F [E 70]
≥ 80%: [1]; [6] | [2]; [7] | [4]; [8]

CC1(C)N=C(c2cnn3cccc3c2)c2ccccc2C1(F)F [E 71]
≥ 80%: [1]; [6] | [2]; [7] | [5] | [4]; [8]

CC1(C)N=C(c2cnn3cccc3c2)c2ccc(F)cc2C1(C)C [E 72]
≥ 80%: [1]; [6] | [2]; [7] | [5] | [4]; [8]

CC1(C)N=C(c2cnn3cccc3c2)c2ccc(F)c(F)c2C1(C)C [E 73]
≥ 80%: [1]; [6] | [2]; [7] | [5] | [4]; [8]

CC1(C)N=C(c2cnn3cc(F)cc3c2)c2cccc(F)c2C1(C)C [E 74]
≥ 80%: [1]; [6] | [2]; [7] | [5] | [4]; [8]

Cc1nn2cccc2cc1C1=NC(C)(C)C(C)(C)c2cc(F)ccc21 [E 78]
≥ 80%: [1]; [6] | [5] | [4]; [8]

Cc1c(C2=NC(C)(C)C(C)(C)c3cc(F)ccc32)cnn2cccc12 [E 79]
≥ 80%: [1]; [6] | [5] | [4]; [8]

Cc1nn2cccc2cc1C1=NC(C)(C)C(C)(C)c2c1ccc(F)c2F [E 80]
≥ 80%: [1]; [6] | [2]; [7] | [5] | [4]; [8]

Cc1c(C2=NC(C)(C)C(C)(C)c3c2ccc(F)c3F)cnn2cccc12 [E 81]
≥ 80%: [1]; [6] | [5] | [4]; [8]

Cc1c(C2=NC(C)(C)C(C)(C)c3c(F)cccc32)cnn2c(Br)ccc12 [E 82]
≥ 80%: [1]; [6] | [2]; [7] | [4]; [8]

CC1(C)N=C(c2cnn3ccnc3c2)c2cccc(F)c2C1(C)C [E 85]
≥ 80%: [1]; [6] | [2]; [7] | [4]; [8]

Cc1cnc2cc(C3=NC(C)(C)C(F)(F)c4c(F)cccc43)cnn12 [E 90]
≥ 80%: [1]; [6] | [2]; [7] | [5] | [4]; [8]
